According to US4585859A, “Analogues of morpholinyl daunorubicin and morpholinyl doxorubicin” (priority 1984, dated 1986):
Values joined by “and” are separate entries in the source; they are usually repeats but may differ in a detail not shown here. Equal entries are not always repeated. Where two headings read alike, the source gives them in different places.

Experiments:
[1] = tested on: RNA synthesis in L 1210 Cells; experiment: Inhibition of RNA synthesis in L 1210 Cells; type: cell-based, mouse
[2] = tested on: DNA synthesis in L 1210 Cells; experiment: Inhibition of DNA synthesis in L 1210 Cells; type: cell-based, mouse
[3] = tested on: Lymphocyte Leukemia P-388; experiment: Survival time of mice inoculated i.p. with Lymphocyte Leukemia P-388, treated days 5, 9 and 13 (Table A); type: in vivo, mouse; settings: for T/C vs mouse leukemia P388: at 50 mg/kg (thiomorpholino) or 8 mg/kg (doxorubicin); for dose required vs mouse leukemia P388: dose for the T/C quoted
[4] = tested on: P-388 leukemia; experiment: Mouse antitumor efficacy vs P-388 leukemia (Table B)
[5] = tested on: B-16 Melanoma; experiment: Mouse antitumor efficacy vs B-16 Melanoma (Table B)
[6] = prior art; cited from earlier work
[7] = tested on: mouse leukemia P388; settings: cited from earlier work; for T/C value against P388: U.S. Pat. No. 4,301,277; for activity in mouse leukemia P388 screen / dose requirement in P388 screen: 3-dose schedule q4d 5,9,13
[8] = tested on: heart; settings: some patients; cited from earlier work
[9] = tested on: tumors (colon cancer, melanoma); settings: cited from earlier work
[10] = tested on: DNA; settings: cited from earlier work
[11] = Mus musculus, L1210, L-1210 cells, RNA synthesis, read-out: Leukemia L-1210 Cells Inhibition of Synthesis ED50, RNA
[12] = Mus musculus, L1210, L-1210 cells, DNA synthesis, read-out: Leukemia L-1210 Cells Inhibition of Synthesis ED50, DNA
[13] = P-388 in mice, q4d 5,9,13, at optimum dose
[14] = Mus musculus, L1210, read-out: Leukemia L-1210 Cells Inhibition of Synthesis ED50, DNA
[15] = Mus musculus, L1210, read-out: Leukemia L-1210 Cells Inhibition of Synthesis ED50, RNA

COc1cccc2c1C(=O)c1c(O)c3c(c(O)c1C2=O)C[C@@](O)(C(=O)CO)C[C@@H]3O[C@H]1C[C@H](N2C(=O)COCC2C#N)[C@H](O)[C@H](C)O1 (stereo partly shown) [3'-deamino-3'-(3"-cyano-5"-oxo-4"-morpholinyl)-doxorubicin]
IC50 ([1]; l1210 cells, read-out: Leukemia L-1210 Cells Inhibition of Synthesis ED50, RNA): 30 nM
IC50 ([2]; l1210 cells, read-out: Leukemia L-1210 Cells Inhibition of Synthesis ED50, DNA): 50 nM

COc1cccc2c1C(=O)c1c(O)c3c(c(O)c1C2=O)C[C@@](O)(C(C)=O)C[C@@H]3O[C@H]1C[C@H](N2CCSCC2)[C@H](O)[C@H](C)O1
T/C vs mouse leukemia P388 [3]: 169%
dose required vs mouse leukemia P388 [3]: 50 mg/kg

COc1cccc2c1C(=N)c1c(O)c3c(c(O)c1C2=O)C[C@@](O)(C(=O)CO)C[C@@H]3O[C@H]1C[C@H](N2CCOCC2)[C@H](O)[C@H](C)O1 [NSC 355277, 3'-deamino-3'-(4"-morpholinyl)-5-iminodoxorubicin]
Mouse Antitumor Efficacy at Optimum Dose, % T/C ([4]; ip P388, d 1, ip): > 193%
Optimum Dose ([4]; ip P388, d 1, ip): 2 mg/kg
Mouse Antitumor Efficacy at Optimum Dose, % T/C ([4]; ip P388, d 1, iv): 166%
Optimum Dose ([4]; ip P388, d 1, iv): 2.5 mg/kg

COc1cccc2c1C(=O)c1c(O)c3c(c(O)c1C2=O)C[C@@](O)(C(=O)CO)C[C@@H]3O[C@H]1C[C@H](N2CCOCC2)[C@H](O)[C@H](C)O1 [NSC 354646, 3'-deamino-3'-(4"-morpholinyl)doxorubicin]
Mouse Antitumor Efficacy at Optimum Dose, % T/C ([4]; ip P388, d 1, ip): 182%
Optimum Dose ([4]; ip P388, d 1, ip): 0.05 mg/kg
Mouse Antitumor Efficacy at Optimum Dose, % T/C ([4]; ip P388, d 1, iv): > 143%
Optimum Dose ([4]; ip P388, d 1, iv): 0.062 mg/kg
Mouse Antitumor Efficacy at Optimum Dose, % T/C ([4]; ip P388, q4d 1,5,9, ip): 224%
Optimum Dose ([4]; ip P388, q4d 1,5,9, ip): 0.05 mg/kg
Mouse Antitumor Efficacy at Optimum Dose, % T/C ([4]; ip P388, q4d 1,5,9, po): 175%
Optimum Dose ([4]; ip P388, q4d 1,5,9, po): 0.05 mg/kg
Mouse Antitumor Efficacy at Optimum Dose, % T/C ([4]; ip P388, qd 1-9, ip): 209%
Optimum Dose ([4]; ip P388, qd 1-9, ip): 0.0125 mg/kg

COc1cccc2c1C(=O)c1c(O)c3c(c(O)c1C2=O)C[C@@](O)(C(=O)CO)C[C@@H]3O[C@H]1C[C@H](N2CCOCC2C#N)[C@H](O)[C@H](C)O1 (stereo partly shown) [NSC 357704, 3'-deamino-3'-(3"-cyano-4"-morpholinyl)doxorubicin]
Mouse Antitumor Efficacy at Optimum Dose, % T/C ([5]; mouse, in vivo, ip): > 138% and 123%
Mouse Antitumor Efficacy at Optimum Dose, % T/C ([4]; mouse, in vivo): 152% and > 158%
Optimum Dose ([4]; mouse, in vivo): 0.05 mg/kg and 0.1 mg/kg
Mouse Antitumor Efficacy at Optimum Dose, % T/C ([4]; mouse, in vivo, ip): 262% and > 360%
Optimum Dose ([4]; mouse, in vivo, ip): 0.0125 mg/kg and 0.0063 mg/kg

COc1cccc2c1C(=O)c1c(O)c3c(c(O)c1C2=O)C[C@@](O)(C(C)O)C[C@@H]3O[C@H]1C[C@H](N2CCOCC2)[C@H](O)[C@H](C)O1 (stereo partly shown) [NSC 327450, 3'-deamino-3'-(4"-morpholinyl)-13-dihydrodaunorubicin]
IC50 [1, 11]: 670 nM
IC50 [2, 12]: 2200 nM
Mouse Antitumor Efficacy at Optimum Dose, % T/C ([5]; section "ip B16", d 1, ip): 121%
Survival Time, % T/C [3, 13]: 132%

COc1cccc2c1C(=N)c1c(O)c3c(c(O)c1C2=O)C[C@@](O)(C(C)=O)C[C@@H]3O[C@H]1C[C@H](N)[C@H](O)[C@H](C)O1 [5-Iminodaunorubicin]
antitumor activity, side effects and dosage [6]: retained activity with reduced side effects

COc1cccc2c1C(=O)c1c(O)c3c(c(O)c1C2=O)C[C@@](O)(C(C)=O)C[C@@H]3O[C@H]1C[C@H](N2CCOCC2)[C@H](O)[C@H](C)O1 [NSC 327451, 3'-deamino-3'-(4"-morpholinyl)daunorubicin]
IC50 [1, 11]: 100 nM
IC50 [2, 12]: 760 nM
Mouse Antitumor Efficacy at Optimum Dose, % T/C ([5]; section "ip B16", d 1, ip): 135%
active dose relative to the dose of doxorubicin ([7]; prior art, P388): one-fortieth the dose of doxorubicin
T/C value against P388 ([7]; prior art): 166%
Mouse Antitumor Efficacy at Optimum Dose, % T/C ([4]; ip P388, d 1, ip): 155%
Optimum Dose ([4]; ip P388, d 1, ip): 0.25 mg/kg
Mouse Antitumor Efficacy at Optimum Dose, % T/C ([4]; ip P388, d 1, iv): 152%
Optimum Dose ([4]; ip P388, d 1, iv): 0.5 mg/kg
Survival Time, % T/C [3, 13]: 166%

COc1cccc2c1C(=O)c1c(O)c3c(c(O)c1C2=O)C[C@@](O)(C(C)O)C[C@@H]3O[C@H]1C[C@H](N2CCOCC2C#N)[C@H](O)[C@H](C)O1 (stereo partly shown) [NSC 332305, 3'-deamino-3'-(3"-cyano-4"-morpholinyl)-13-dihydrodaunorubicin]
inhibition of RNA vs DNA synthesis [1]: much more inhibitory toward RNA synthesis than toward DNA synthesis
IC50 [2, 14]: 19 nM
Mouse Antitumor Efficacy at Optimum Dose, % T/C ([5]; section "ip B16", d 1, ip): 131%
Survival Time, % T/C [3, 13]: 143%

COc1cccc2c1C(=O)c1c(O)c3c(c(O)c1C2=O)C[C@@](O)(C(C)=O)C[C@@H]3O[C@H]1C[C@H](N)[C@H](O)[C@H](C)O1 [daunorubicin]
IC50 [1, 15]: 330 nM
IC50 [2, 14]: 660 nM
Mouse Antitumor Efficacy at Optimum Dose, % T/C ([5]; mouse, in vivo, ip): 195%
Survival Time, % T/C ([3]; mouse, in vivo): 130%

COc1cccc2c1C(=O)c1c(O)c3c(c(O)c1C2=O)C[C@@](O)(C(C)=O)C[C@@H]3O[C@H]1C[C@H](N2CCC(OC)CC2)[C@H](O)[C@H](C)O1 [NSC 334353, 3-deamino-3'-(4"-methoxy-1"-piperidinyl)-daunorubicin]
IC50 [1, 15]: 120 nM
IC50 [2, 14]: 630 nM
Survival Time, % T/C [3, 13]: 199%

COc1cccc2c1C(=O)c1c(O)c3c(c(O)c1C2=O)C[C@@](O)(C(=O)CO)C[C@@H]3O[C@H]1C[C@H](N)[C@H](O)[C@H](C)O1 [doxorubicin]
IC50 [1, 15]: 580 nM
IC50 [2, 14]: 1500 nM
heart damage in chronic treatment [8]: irreversible heart damage that can be fatal if continued
T/C value against P388 ([7]; prior art): 160%
Mouse Antitumor Efficacy at Optimum Dose, % T/C ([4]; mouse, in vivo): 185%
Optimum Dose ([4]; mouse, in vivo): 10 mg/kg
Mouse Antitumor Efficacy at Optimum Dose, % T/C ([4]; mouse, in vivo, ip): 252% and 257% and > 285%
T/C vs mouse leukemia P388 [3]: 160%
dose required vs mouse leukemia P388 [3]: 8 mg/kg
Survival Time, % T/C ([3]; mouse, in vivo): 160%
response of patients with some serious tumor types (colon cancer, melanoma) [9]: essentially no patients with some serious tumor types (colon cancer, melanoma) respond

COc1cccc2c1C(=N)c1c(O)c3c(c(O)c1C2=O)C[C@@](O)(C(=O)CO)C[C@@H]3O[C@H]1C[C@H](N)[C@H](O)[C@H](C)O1 [5-iminodoxorubicin]
antitumor activity, side effects and dosage [6]: showed enhanced activity but required higher dosages

COc1cccc2c1C(=O)c1c(O)c3c(c(O)c1C2=O)C[C@@](O)(C(C)O)C[C@@H]3O[C@H]1C[C@H](N2CCC(OC)CC2)[C@H](O)[C@H](C)O1 (stereo partly shown) [NSC 334354, 3'-deamino-3'-(4'-methoxy-1-piperidinyl)-13-dihydrodaunorubicin]
IC50 [1, 11]: 80 nM
IC50 [2, 12]: 580 nM
Survival Time, % T/C [3, 13]: 199%

COc1cccc2c1C(=N)c1c(O)c3c(c(O)c1C2=O)C[C@@](O)(C(O)CO)C[C@@H]3O[C@H]1C[C@H](N2CCOCC2)[C@H](O)[C@H](C)O1 (stereo partly shown) [NSC 355465, 3'-deamino-3'-(4"-morpholinyl)-5-imino-13-dihydrodoxorubicin]
IC50 [1, 15]: 24000 nM
IC50 [2, 14]: > 100000 nM
Survival Time, % T/C [3, 13]: 161%

CCCCC(=O)OCC(=O)[C@]1(O)Cc2c(O)c3c(c(O)c2[C@@H](O[C@H]2C[C@H](NC(=O)C(F)(F)F)[C@H](O)[C@H](C)O2)C1)C(=O)c1c(OC)cccc1C3=O [AD32]
activity in mouse leukemia P388 screen [7]: most active new analogues so far
dose requirement in P388 screen [7]: required significantly higher doses
interaction with DNA in vitro [10]: fail to interact with DNA in vitro

COc1cccc2c1C(=O)c1c(O)c3c(c(O)c1C2=O)C[C@@](O)(C(C)=O)C[C@@H]3O[C@H]1C[C@H](N(Cc2ccccc2)Cc2ccccc2)[C@H](O)[C@H](C)O1 [N,N-dibenzyldaunorubicin]
activity in mouse leukemia P388 screen [7]: most active new analogues so far
dose requirement in P388 screen [7]: required significantly higher doses
interaction with DNA in vitro [10]: fail to interact with DNA in vitro

COc1cccc2c1C(=O)c1c(O)c3c(c(O)c1C2=O)C[C@@](O)(C(C)=O)C[C@@H]3O[C@H]1C[C@H](N2CCOCC2C#N)[C@H](O)[C@H](C)O1 (stereo partly shown) [NSC 332304, 3'-deamino-3'-(3"-cyano-4"-morpholinyl)daunorubicin]
inhibition of RNA vs DNA synthesis [1]: much more inhibitory toward RNA synthesis than toward DNA synthesis
IC50 [2, 14]: 12 nM
Mouse Antitumor Efficacy at Optimum Dose, % T/C ([5]; section "ip B16", d 1, ip): 138%
Mouse Antitumor Efficacy at Optimum Dose, % T/C ([4]; ip P388, d 1, ip): 175%
Optimum Dose ([4]; ip P388, d 1, ip): 0.25 mg/kg
Mouse Antitumor Efficacy at Optimum Dose, % T/C ([4]; ip P388, d 1, iv): 157%
Optimum Dose ([4]; ip P388, d 1, iv): 0.5 mg/kg
Survival Time, % T/C [3, 13]: 197%

COc1cccc2c1C(=O)c1c(O)c3c(c(O)c1C2=O)C[C@@](O)(C(O)CO)C[C@@H]3O[C@H]1C[C@H](N2CCOCC2C#N)[C@H](O)[C@H](C)O1 (stereo partly shown) [NSC 360291, 3'-deamino-3'-(3"-cyano-4"-morpholinyl)-13-dihydrodoxorubicin]
Mouse Antitumor Efficacy at Optimum Dose, % T/C ([5]; mouse, in vivo, ip): 149% and 121%
Mouse Antitumor Efficacy at Optimum Dose, % T/C ([4]; mouse, in vivo, ip): 183% and 267%
Optimum Dose ([4]; mouse, in vivo, ip): 0.05 mg/kg and 0.025 mg/kg
Survival Time, % T/C [3, 13]: 150%
